SMILES strings stand for the structures.

Drawing on patent publication US20260078122A1, “INDAZOLE COMPOUNDS AS PKMYT1 KINASE INHIBITORS” (Hoffmann-La Roche Inc., priority 2023, published 2026), this text covers IC50 for 35 compounds.

For the assay, the target named is T1, recombinant human Myt1 (full length PKMYT1) (Homo sapiens, UniProt Q99640).
T1 sequence (Q99640 1-499): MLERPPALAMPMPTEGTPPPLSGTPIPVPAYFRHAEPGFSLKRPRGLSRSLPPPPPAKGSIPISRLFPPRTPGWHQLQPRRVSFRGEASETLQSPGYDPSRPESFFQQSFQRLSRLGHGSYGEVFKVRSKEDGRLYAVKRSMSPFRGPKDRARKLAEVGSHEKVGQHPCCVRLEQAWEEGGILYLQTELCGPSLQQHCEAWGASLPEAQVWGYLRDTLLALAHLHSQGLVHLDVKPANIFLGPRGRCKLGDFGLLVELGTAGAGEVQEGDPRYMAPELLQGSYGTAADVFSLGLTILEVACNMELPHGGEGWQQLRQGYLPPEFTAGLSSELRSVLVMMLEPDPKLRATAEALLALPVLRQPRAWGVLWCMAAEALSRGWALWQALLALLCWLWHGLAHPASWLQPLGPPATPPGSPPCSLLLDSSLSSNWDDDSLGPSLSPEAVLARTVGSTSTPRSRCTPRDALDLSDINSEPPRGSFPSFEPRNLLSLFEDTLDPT
As to the kind of experiment: ADP-Glo assay (Myt1 kinase activity).
For `Cc1cc2[nH]c(=O)c(N)c(-c3ccc(F)c4[nH]ncc34)c2nc1OC1CC(C(C)(C)O)C1` (centres unmarked) [Example 096, 3-Amino-4-(7-fluoro-1H-indazol-4-yl)-6-[3-(1-hydroxy-1-methyl-ethyl)cyclobutoxy]-7-methyl-1H-1,5-naphthyridin-2-one], the IC50 was 65.2 nM.

With `CC(=O)c1nc2c(-c3ccc(F)c4[nH]ncc34)c(N)c(=O)[nH]c2c(Cl)c1C` [Example 112, 6-Acetyl-3-amino-8-chloro-4-(7-fluoro-1H-indazol-4-yl)-7-methyl-1H-1,5-naphthyridin-2-one], the half-maximal inhibitory concentration (IC50) was less than 10 nM.

Take `Nc1c(-c2cccc3[nH]ncc23)c2ncc(-c3nccs3)cc2[nH]c1=O` [Example 35, 3-Amino-4-(1H-indazol-4-yl)-7-thiazol-2-yl-1H-1,5-naphthyridin-2-one]: the IC50 was 25.6 nM.

Take `COc1c(C)nc(C)c2[nH]c(=O)c(N)c(-c3ccc(F)c4[nH]ncc34)c12` [Example 174, 3-Amino-4-(7-fluoro-1H-indazol-4-yl)-5-methoxy-6,8-dimethyl-1H-1,7-naphthyridin-2-one]: the IC50 came out at 12.7 nM.

As to `Cc1cc2[nH]c(=O)c(N)c(-c3ccc(F)c4[nH]ncc34)c2nc1OC1CCC1` [Example 46, 3-Amino-6-(cyclobutoxy)-4-(7-fluoro-1H-indazol-4-yl)-7-methyl-1H-1,5-naphthyridin-2-one], the IC50 amounted to 10.6 nM.

For the compound `Cc1c(C2CCCC2)cnc2c(-c3ccc(F)c4[nH]ncc34)c(N)c(=O)[nH]c12` [Example 126, 3-Amino-7-cyclopentyl-4-(7-fluoro-1H-indazol-4-yl)-8-methyl-1H-1,5-naphthyridin-2-one], the IC50 was less than 10 nM.

On to `Cc1c(Br)nc2c(-c3ccc(F)c4[nH]ncc34)c(N)c(=O)[nH]c2c1Cl` [Example 108, 3-Amino-6-bromo-8-chloro-4-(7-fluoro-1H-indazol-4-yl)-7-methyl-1H-1,5-naphthyridin-2-one], for which the IC50 was 15.1 nM.

As for `Cc1cc2[nH]c(=O)c(N)c(-c3ccc(F)c4[nH]ncc34)c2cc1N1CC2(COC2)C1` [Example 105, 3-Amino-4-(7-fluoro-1H-indazol-4-yl)-7-methyl-6-(2-oxa-6-azaspiro[3.3]heptan-6-yl)-1H-quinolin-2-one], the IC50 was 18.5 nM.

Turning to `Nc1c(-c2ccc(F)c3[nH]ncc23)c2ncc(F)cc2[nH]c1=O` [Example 4], the IC50 amounted to 48.1 nM.

`Cc1cc2[nH]c(=O)c(N)c(-c3ccc(F)c4[nH]ncc34)c2nc1N1CC2CC1CN2C` (centres unmarked) [Example 30, 3-Amino-4-(7-fluoro-1H-indazol-4-yl)-7-methyl-6-(5-methyl-2,5-diazabicyclo[2.2.1]heptan-2-yl)-1H-1,5-naphthyridin-2-one]: the IC50 worked out at 15.3 nM.

For `Cc1cc2[nH]c(=O)c(N)c(-c3ccc(F)c4[nH]ncc34)c2cc1Br` [Example 104, 3-Amino-6-bromo-4-(7-fluoro-1H-indazol-4-yl)-7-methyl-1H-quinolin-2-one], the IC50 was 15.7 nM.

For `Cc1c(C2CCC2)cnc2c(-c3ccc(F)c4[nH]ncc34)c(N)c(=O)[nH]c12` [Example 119, 3-Amino-7-cyclobutyl-4-(7-fluoro-1H-indazol-4-yl)-8-methyl-1H-1,5-naphthyridin-2-one], the IC50 is 13 nM.

With `CCOc1cnc2c(-c3ccc(F)c4[nH]ncc34)c(N)c(=O)[nH]c2c1C` [Example 140, 3-Amino-7-ethoxy-4-(7-fluoro-1H-indazol-4-yl)-8-methyl-1H-1,5-naphthyridin-2-one], the IC50 is 11.8 nM.

With `Cc1nc2c(-c3ccc(F)c4[nH]ncc34)c(N)c(=O)[nH]c2c(C)c1Cl` [Example 56, 3-Amino-7-chloro-4-(7-fluoro-1H-indazol-4-yl)-6,8-dimethyl-1H-1,5-naphthyridin-2-one], the IC50 is less than 10 nM.

For `Cc1cc2[nH]c(=O)c(N)c(-c3ccc(F)c4[nH]ncc34)c2nc1N1CC2CCC1CN2C` (centres unmarked) [Example 31, 3-Amino-4-(7-fluoro-1H-indazol-4-yl)-7-methyl-6-(5-methyl-2,5-diazabicyclo[2.2.2]octan-2-yl)-1H-1,5-naphthyridin-2-one], the IC50 was 21.3 nM.

For `Cc1ncc(F)c2c(-c3ccc(F)c4[nH]ncc34)c(N)c(=O)[nH]c12` [Example 179, 3-Amino-5-fluoro-4-(7-fluoro-1H-indazol-4-yl)-8-methyl-1H-1,7-naphthyridin-2-one], the IC50 was 12.5 nM.

Take `Cc1cc2[nH]c(=O)c(N)c(-c3ccc(F)c4[nH]ncc34)c2nc1N1CCC(O)C1` (centres unmarked) [Example 24, 3-Amino-4-(7-fluoro-1H-indazol-4-yl)-6-(3-hydroxypyrrolidin-1-yl)-7-methyl-1H-1,5-naphthyridin-2-one]: the IC50 amounted to 15.6 nM.

Regarding `Cc1cc2[nH]c(=O)c(N)c(-c3ccc(F)c4[nH]ncc34)c2nc1C(C)(C)O` [Example 088, 3-Amino-4-(7-fluoro-1H-indazol-4-yl)-6-(1-hydroxy-1-methyl-ethyl)-7-methyl-1H-1,5-naphthyridin-2-one], the IC50 was found to be 47 nM.

Consider `Cc1c(Cl)nc2c(-c3ccc(F)c4[nH]ncc34)c(N)c(=O)[nH]c2c1C` [Example 49, 3-Amino-6-chloro-4-(7-fluoro-1H-indazol-4-yl)-7,8-dimethyl-1H-1,5-naphthyridin-2-one], for which the IC50 is less than 10 nM.

Take `CCc1cnc(C)c2[nH]c(=O)c(N)c(-c3ccc(F)c4[nH]ncc34)c12` [Example 178, 3-Amino-5-ethyl-4-(7-fluoro-1H-indazol-4-yl)-8-methyl-1H-1,7-naphthyridin-2-one]: the IC50 is 18.1 nM.

As for `Cc1cc2[nH]c(=O)c(N)c(-c3ccc(Cl)c4[nH]ncc34)c2nc1C` [Example 159, 3-Amino-4-(7-chloro-1H-indazol-4-yl)-6,7-dimethyl-1H-1,5-naphthyridin-2-one], the IC50 was less than 10 nM.

For `Nc1c(-c2cccc3[nH]ncc23)c2ncc(C3CC3)cc2[nH]c1=O` [Example 34, 3-Amino-7-cyclopropyl-4-(1H-indazol-4-yl)-1H-1,5-naphthyridin-2-one], the IC50 is 19.3 nM.

In the case of `Cc1cc2[nH]c(=O)c(N)c(-c3ccc(F)c4[nH]ncc34)c2nc1C1COC1` [Example 093, 3-Amino-4-(7-fluoro-1H-indazol-4-yl)-7-methyl-6-(oxetan-3-yl)-1H-1,5-naphthyridin-2-one], the IC50 amounted to 11.9 nM.

For the compound `Cc1ncc(OCc2ccccc2)c2c(-c3ccc(F)c4[nH]ncc34)c(N)c(=O)[nH]c12` [Example 181, 3-Amino-5-benzyloxy-4-(7-fluoro-1H-indazol-4-yl)-8-methyl-1H-1,7-naphthyridin-2-one], the IC50 was 20 nM.

Take `Cc1nc(Cl)cc2c(-c3ccc(F)c4[nH]ncc34)c(N)c(=O)[nH]c12` [Example 175, 3-Amino-6-chloro-4-(7-fluoro-1H-indazol-4-yl)-8-methyl-1H-1,7-naphthyridin-2-one]: the IC50 was less than 10 nM.

Take `Nc1c(-c2ccc(F)c3[nH]ncc23)c2ncc(-c3ccn[nH]3)cc2[nH]c1=O` [Example 9, 3-Amino-4-(7-fluoro-1H-indazol-4-yl)-7-(1H-pyrazol-5-yl)-1H-1,5-naphthyridin-2-one]: the IC50 is 16.1 nM.

For `Cc1cc2[nH]c(=O)c(N)c(-c3ccc(F)c4[nH]ncc34)c2nc1-c1cscn1` [Example 152, 3-Amino-4-(7-fluoro-1H-indazol-4-yl)-7-methyl-6-thiazol-4-yl-1H-1,5-naphthyridin-2-one], the IC50 amounted to 13.8 nM.

On to `Cc1c(CC2CC2)cnc2c(-c3ccc(F)c4[nH]ncc34)c(N)c(=O)[nH]c12` [Example 131, 3-Amino-7-(cyclopropylmethyl)-4-(7-fluoro-1H-indazol-4-yl)-8-methyl-1H-1,5-naphthyridin-2-one], for which the IC50 is 17.5 nM.

For `Cc1ncc(Cl)c2c(-c3ccc(F)c4[nH]ncc34)c(N)c(=O)[nH]c12` [Example 176, 3-Amino-5-chloro-4-(7-fluoro-1H-indazol-4-yl)-8-methyl-1H-1,7-naphthyridin-2-one], the IC50 amounted to 14.3 nM.

On to `Cc1cc2[nH]c(=O)c(N)c(-c3ccc(F)c4[nH]ncc34)c2nc1OCC12CC(C1)C2` [Example 063, 3-Amino-6-(1-bicyclo[1.1.1]pentanylmethoxy)-4-(7-fluoro-1H-indazol-4-yl)-7-methyl-1H-1,5-naphthyridin-2-one], for which the IC50 was determined as 9.7 nM.

Take `Cc1cc2[nH]c(=O)c(N)c(-c3ccc(F)c4[nH]ncc34)c2nc1Br` [Example 21, 3-Amino-6-bromo-4-(7-fluoro-1H-indazol-4-yl)-7-methyl-1H-1,5-naphthyridin-2-one]: the IC50 was determined as 10.3 nM.

Turning to `Cc1cnc2c(-c3ccc(F)c4[nH]ncc34)c(N)c(=O)[nH]c2c1Cl` [Example 53, 3-Amino-8-chloro-4-(7-fluoro-1H-indazol-4-yl)-7-methyl-1H-1,5-naphthyridin-2-one], the IC50 worked out at 10.7 nM.

Regarding `Cc1c(OCC(F)(F)F)cnc2c(-c3ccc(F)c4[nH]ncc34)c(N)c(=O)[nH]c12` [Example 137, 3-Amino-4-(7-fluoro-1H-indazol-4-yl)-8-methyl-7-(2,2,2-trifluoroethoxy)-1H-1,5-naphthyridin-2-one], the IC50 stood at 14.1 nM.

Regarding `Cc1c(Br)cnc2c(-c3ccc(F)c4[nH]ncc34)c(N)c(=O)[nH]c12` [Example 115, 3-Amino-7-bromo-4-(7-fluoro-1H-indazol-4-yl)-8-methyl-1H-1,5-naphthyridin-2-one], the IC50 was less than 10 nM.

Take `Cc1cc2[nH]c(=O)c(N)c(-c3ccc(F)c4[nH]ncc34)c2nc1C1CC1` [Example 18, 3-Amino-6-cyclopropyl-4-(7-fluoro-1H-indazol-4-yl)-7-methyl-1H-1,5-naphthyridin-2-one]: the IC50 came to 10.4 nM.

As a reminder, the IC50 is the point on the concentration scale where inhibition reaches its midpoint.
